# Results: patent US9868766B2, “Peptides as oxytocin agonists” (Hoffmann-La Roche Inc., priority 2012, dated 2018)
# Positions of bridges follow the written chain, without caps; N, C: chain ends. Non-standard residues stand in square brackets, D forms with d. Residues, ends and D or L forms follow the SMILES beside them. Hyp = O=C(O)[C@@H]1C[C@@H](O)CN1; Tle = CC(C)(C)[C@H](N)C(=O)O; Nle = CCCC[C@H](N)C(=O)O; Sar = CNCC(=O)O
# Columns and labels:
# Type in all cases: cell-based
# [1] = target: T1, human Oxytocin (OTR) receptor (Homo sapiens, UniProt P30559); assay: Calcium flux assay (FLIPR), agonist mode, CHO cells expressing human OTR; settings: for EC50: CHO cells stably expressing human OTR, calcium flux, read-out: hOT EC50; for Emax: CHO, maximum response normalized to endogenous full agonist = 100%, read-out: hOT efficacy (%)
# T1 construct: expressed in transfected cells
# T1 sequence (P30559 1-389): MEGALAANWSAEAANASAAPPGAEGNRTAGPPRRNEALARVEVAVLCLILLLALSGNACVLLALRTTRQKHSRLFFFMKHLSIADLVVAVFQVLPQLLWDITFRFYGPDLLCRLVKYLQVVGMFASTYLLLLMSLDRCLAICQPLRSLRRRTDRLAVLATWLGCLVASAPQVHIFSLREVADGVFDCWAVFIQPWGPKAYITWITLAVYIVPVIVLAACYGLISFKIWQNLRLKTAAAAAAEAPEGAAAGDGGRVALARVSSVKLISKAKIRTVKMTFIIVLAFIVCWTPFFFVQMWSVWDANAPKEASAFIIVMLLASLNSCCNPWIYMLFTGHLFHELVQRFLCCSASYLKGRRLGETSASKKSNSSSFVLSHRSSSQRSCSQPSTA
# Procedure, shortened: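 Monoclonal CHO cells stably expressing the receptor were loaded with 2 μM Fluo-4-AM in HBSS with 20 mM HEPES (pH 7.3) and 2.5 mM probenecid. Compound was added 10 s into reading and fluorescence followed for 5 min.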
# human V1a receptor = target: T2, human V1a receptor (Homo sapiens, UniProt P37288); assay: Calcium flux assay (FLIPR), agonist mode, CHO cells expressing human V1a; settings: CHO cells stably expressing human V1a; calcium flux; read-out: hV1a EC50
# T2 construct: expressed in transfected cells
# T2 sequence (P37288 whole entry): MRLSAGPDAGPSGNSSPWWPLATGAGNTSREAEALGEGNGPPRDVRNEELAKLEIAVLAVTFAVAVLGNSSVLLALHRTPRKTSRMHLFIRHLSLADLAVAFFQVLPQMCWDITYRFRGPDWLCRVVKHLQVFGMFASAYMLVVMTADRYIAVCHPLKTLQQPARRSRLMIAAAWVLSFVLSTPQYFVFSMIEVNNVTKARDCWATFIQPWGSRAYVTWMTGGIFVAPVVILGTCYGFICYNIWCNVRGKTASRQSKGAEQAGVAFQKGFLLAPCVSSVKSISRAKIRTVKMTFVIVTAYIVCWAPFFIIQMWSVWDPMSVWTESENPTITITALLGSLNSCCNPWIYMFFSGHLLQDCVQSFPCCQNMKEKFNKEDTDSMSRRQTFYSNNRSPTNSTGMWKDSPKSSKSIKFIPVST
# Text: (§1) Chines Hamster Ovary (CHO) cells were transfected with expression plasmids encoding either the human V1a, the human Oxytocin (OTR) or the humanV2 receptor, the later in combination with the chimeric Gqs5 G protein to redirect the signal to Calcium flux. Stable cells were cloned by limiting dilution to yield monoclonal cell lines expressing either human V1a, human V2+Gqs5 or human OTR receptors and selected based on functional responses detected on a fluorometric imaging plate reader (FLIPR) detecting Calcium flux in the cell after receptor activation. The stable cell lines were grown in F-12 K Nutrient Mixture (Kaighns Modification), containing 10% foetal bovine serum (FBS), 1% penicillin-streptomycin, 1% L-glutamate, 200 ug/ml Geneticin at 37° C. in a 10% CO2 incubator at 95% humidity.
# (§2) On the afternoon before the assay, cells were plated at a density of 50,000 cells/well into black 96 well plates with clear bottoms to allow cell inspection and fluorescence measurements from the bottom of each well. The density of cells was sufficient to yield a confluent monolayer the next day. Hanks balanced salt solution, without phenol red, containing 20 mM HEPES (pH 7.3) and 2.5 mM probenecid (assay buffer) was prepared fresh for each experiment. Compound dilutions were made using a Beckman Biomek 2000 laboratory automation workstation, in assay buffer containing 1% DMSO. The dye-loading buffer consisted of a final concentration of 2 μM Fluo-4-AM (dissolved in DMSO and pluronic acid) in assay buffer. The existing culture media was removed from the wells and 100 μl of the dye-loading buffer was added to each well and incubated for approximately 60 min at 37° C. in a 5% CO2 incubator at 95% humidity. Once dye-loaded, the cells were washed thoroughly on an Embla cell washer with the assay buffer to remove any unincorporated dye. Exactly 100 μl assay buffer was left in each well.
# (§3) Each 96 well plate containing dye-loaded cells was placed into the FLIPR machine and the laser intensity set to a suitable level to detect low basal fluorescence. To test compounds as agonists, 25 μl diluted compound was added to the plate 10 seconds into the fluorescent measurements and fluorescent response was recorded for 5 minutes. The fluorescence data was normalized to the endogenous full agonist dose-response set at 100% for the maximum response and 0% for the minimum. Each agonist concentration-response curve was constructed using a four parameter logistic equation with Microsoft Excel XLFit as follows: Y=Minimum+((Maximum−Minimum)/(1+10^(Log EC50-X)nH)), where y is the % normalized fluorescence, minimum is the minimum y, maximum is the maximum y, log EC50 is the log10 concentration which produces 50% of the maximum induced fluorescence, x is the log10 of the concentration of the agonist compound and H is the slope of the curve (the Hill Coefficient). The maximum value gives the efficacy of the agonist test compound in percentage. The concentration of agonist that produced a half-maximal response is represented by the EC50 value, the logarithm of which yielded the pEC50 value.
# human V2 receptor = target: T3, human V2 receptor (Homo sapiens, UniProt P30518); assay: Calcium flux assay (FLIPR), agonist mode, CHO cells expressing human V2 + Gqs5; settings: for EC50: CHO cells stably expressing human V2 + chimeric Gqs5, calcium flux, read-out: hV2 EC50; for Emax: CHO, maximum response normalized to endogenous full agonist = 100%, read-out: hV2 efficacy (%)
# T3 construct: expressed in transfected cells
# T3 sequence (P30518 whole entry): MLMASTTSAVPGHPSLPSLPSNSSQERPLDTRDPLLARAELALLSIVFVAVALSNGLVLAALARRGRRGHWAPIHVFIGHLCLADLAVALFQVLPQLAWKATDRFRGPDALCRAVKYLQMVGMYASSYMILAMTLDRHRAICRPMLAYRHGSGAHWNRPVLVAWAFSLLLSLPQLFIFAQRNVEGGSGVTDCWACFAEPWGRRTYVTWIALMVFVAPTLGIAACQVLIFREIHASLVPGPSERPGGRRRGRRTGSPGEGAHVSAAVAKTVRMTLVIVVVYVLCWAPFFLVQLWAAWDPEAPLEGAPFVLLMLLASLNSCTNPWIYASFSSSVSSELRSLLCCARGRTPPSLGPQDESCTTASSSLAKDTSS
# Text: as §1, §2, §3
SMILES,EC50 [1] [nM],Emax [1] [%],EC50 (human V1a receptor) [nM],EC50 (human V2 receptor) [nM],Emax (human V2 receptor) [%]
CCCC[C@H](NC(=O)CN(C)C(=O)[C@@H]1CCC(=O)NCC(=O)N[C@@H](Cc2ccc(O)cc2)C(=O)N[C@@H]([C@@H](C)CC)C(=O)N[C@@H](CCC(N)=O)C(=O)N[C@@H](CC(N)=O)C(=O)N1)C(=O)NCC(N)=O [Example 40] (GYIQNE[Sar][Nle]G-NH2; lactam N-6),0.4,124,> 27000,2190,117
CC[C@H](C)[C@@H]1NC(=O)[C@H](Cc2ccc(O)cc2)NC(=O)CNC(=O)CC[C@@H](C(=O)N(C)CC(=O)N[C@H](C(=O)NCC(N)=O)C(C)(C)C)NC(=O)[C@H](CC(N)=O)NC(=O)[C@H](CCC(N)=O)NC1=O [Example 44] (GYIQNE[Sar][Tle]G-NH2; lactam N-6),0.5,117,> 27000,1230,112
CC[C@H](C)[C@@H]1NC(=O)[C@H](Cc2ccc(O)cc2)NC(=O)CNC(=O)CC[C@@H](C(=O)N2C[C@H](O)C[C@H]2C(=O)N[C@@H](CC(C)C)C(=O)NCC(N)=O)NC(=O)[C@H](CC(N)=O)NC(=O)[C@H](CCC(N)=O)NC1=O [Example 45] (GYIQNE[Hyp]LG-NH2; lactam N-6),0.6,113,> 27000,3810,91
